pIC50: −log10 of the molar value. Structures can show the parent of a compound that is named as a salt.
Legend:
[1] = test system: C-4 Human Cervical Carcinoma; assay: C-4 (cervical) solid tumor model; type: in vivo, Rag-2 mice
Experimental: Cultures of C-4 Human Cervical Carcinoma cells are available from the British Columbia Cancer Research Centre. Cells were injected subcutaneously twice into mature male Rag-2 mice (24 mice, 1×10^6 cells/mouse) using a 26-gauge needle. The C-4 cells were suspended in a Hank's Balanced Salt Solution without calcium. Tumors were allowed to form in the mice for 31 days.
When the tumors were well established, four separate groups of mice, were selected for administration of the three test articles (i.e. one group for each test article of AHVB bisulphate, AHVB ditartrate, and Navelbine™) and one control.
AHVB bisulphate and ditartrate, and Navelbine™ were solubilized using 5% dextrose saturated with Argon. These articles were administered at doses of 20 mg/Kg intravenously. Any dose dilutions were made with 5% dextrose.
The articles were administered intravenously on the days 1, 5 and 9, as were controls of 5% dextrose. Body weights and tumor measurements with calipers were taken regularly over the period of the study of 69 days.
Following administration of the test articles, the animals; weight and tumor size (using calipers) were determined regularly over the period of the study. If the tumor size reached I gram in weight or the tumor started to ulcerate, the animals were sacrificed (by carbon dioxide inhalation) and subjected to necropsy. Animals were also monitored at least daily for signs of stress for the full length of the study. Animals manifesting severe symptoms of stress (rapid weight loss, panting, hunched posture, scruffy coat) were also sacrificed and a necropsy performed.
The results of the efficacy studies are given in Table 3 and present averages of data from 6 or fewer animals. Each mouse in a given article group had two subcutaneous tumors on its back. Each tumor was measured in length and width and the volume of each tumor was calculated by […]. The two tumor volumes were then averaged. The volume averages of all the mice/group were averaged to yield a mean for each single date point. The calculation was performed each day the tumors were measured.

[2] = test system: H460 human non-small cell lung carcinoma, C-4 human cervical carcinoma, K562 human leukaemia, and the A431 human epidermoid cell lines; assay: MTT cytotoxicity assay, 72 hours, panel of human cancer cell lines; type: cell-based
[3] = Murine P388 model in BDF1 mice; type: in vivo; conditions: female, mouse, in vivo; single bolus intravenous injection, BDF1 mice bearing P388 tumors; read-out: maximum tolerated dose
Experimental: Antitumor studies on mice focussed, in one case, on the P388 leukaemia model. […] This is an ascitic tumor model that was generated by intraperitoneal inoculation of 1×10^6 P388 cells (derived from culture, with an original cell line obtained from the NCI tumor repository) in BDF1 mice (Charles Rivers). One day after tumor cell inoculation, mice were treated with a single intravenous injection of drug. Animal weight was monitored daily and tumor progression was measured as an increase in animal weight and through estimation of survival time. Therapy was described by a decrease in tumor progression and an increase in survival time relative to an untreated control group. Initial studies established the maximum therapeutic dose for AHVB. Subsequently comparative studies with vincristine and Navelbine™ were initiated where animals were treated with each drug at the maximum therapeutic dose.
The in vivo anti-tumor activity of AHVB was compared to that of vincristine, Navelbine™ in the BDF1-murine P388 model in the procedure as follows. P388 cells were derived from the ascities of previously injected female BDF1 mice (19-21 grams) P388 cells, from the NCI tumor repository were inoculated directly into mice. The cells arrive from NCI frozen in 1 ml aliquots. These samples were thawed rapidly at 37° C. and subsequently injected (within 1 hour) intraperitoneally into two mice, 0.5 ml per mouse. One week (7 days) after inoculation, the tumor cells were harvested by removing peritoneal fluid using a sterile syringe with a 22 gauge needle. The cells, pooled from two animals, were counted using a hemocytometer, diluted (RPMI media) to a concentration of 2×10^6 cells/ml and 0.5 ml was then re-injected into each of two BDF1 mice. Remaining cells were washed and placed into a DMSO containing media and frozen (in freezer packs that cool at a defined rate). This process was repeated weekly over a […]. Cells used for anti-tumor studies were collected from the third passage to the 20th passage. After the 20th passage the cells were no longer used for experimental studies. Newly established cells were derived from the frozen cells prepared as described above.
Groups (five mice per group) of female BDF1 mice (Charles Rivers, Canada) were injected (intraperitoneal) with 10^6 P388 cells (as described above). One day after tumor cell inoculation, the mice were given a bolus intravenous injection of indicated drug via the lateral tail vein. Control groups were injected with saline. Free drug samples were prepared on the day of injection such that the final concentrations were sufficient to deliver the indicated drug dose in a volume of 200 μl. All dilutions were made using 0.9% Sodium Chloride Injection USP. The mice were briefly (less than 30 sec.) restrained during intravenous injections. Dilation of the vein was achieved by holding the animals under a heat lamp for a period of between five and ten minutes. Following administration of the test articles, animals were weighed daily for fourteen days and monitored for signs of stress twice daily for the first 14 days (once daily on weekends) and once daily for the remainder of the study. Severely distressed animals were terminated by CO2 asphyxiation and the time of death was recorded to occur on the following day. Although complete dose titrations were completed for each drug, the data shown in FIG. 6 is that obtained after administration of the free drugs at their maximum tolerated dose. This was 3, 40 and 40 mg/kg for vincristine, Navelbine™ and AHVB, respectively.
After treating mice (bearing the P388 tumor) with a single dose of the indicated drug, animals were examined twice daily for the first 14 days (once daily on weekends). Weight gain in the control is an indication of tumor progression.
The studies were conducted as described for FIG. 6. […]

[4] = 20 mg/kg intravenously on days 1, 5, 9

SMILES	activity compared with vincristine and vinorelbine ([1]; human tumor xenografts of cervical cancer, equitoxic doses)	pIC50 ([2]; drug exposure time 72 hours, range over H460, C-4, K562, A431)	fold less active than Navelbine in vitro ([2]; same cell lines)	% Delay In Growth (Dig) [1, 4] [%]	Initial Growth (Day) Of Expt. [1, 4] [days]	Initial Growth (Day) Total [1, 4] [days]	day tumors reached observable 'growth threshold' [1, 4] [days]	MTD at 14 days [3] [mg/kg]
CCC1=C[C@H]2CN(CCc3c([nH]c4ccccc34)[C@@](C(=O)OC)(c3cc4c(cc3OC)N(C)[C@H]3[C@@](O)(C(=O)OC)[C@H](OC(C)=O)[C@]5(CC)C=CCN6CC[C@]43[C@@H]65)C2)C1 [AHVB, 3′,4′-anhydrovinblastine]	superior activity to that of both vincristine and vinorelbine	7.62 to 7.70	approximately 10 fold					
CCC1=C[C@@H]2CN(C1)Cc1c([nH]c3ccccc13)[C@@](C(=O)OC)(c1cc3c(cc1OC)N(C)[C@H]1[C@@](O)(C(=O)OC)[C@H](OC(C)=O)[C@]4(CC)C=CCN5CC[C@]31[C@@H]54)C2 [Navelbine, 3′,4′-didehydro-4′-deoxy-C′-norvincaleukoblastine-di-L-tartrate]				84	29	59	41	40
CC[C@]1(O)C[C@H]2CN(CCc3c([nH]c4ccccc34)[C@@](C(=O)OC)(c3cc4c(cc3OC)N(C=O)[C@H]3[C@@](O)(C(=O)OC)[C@H](OC(C)=O)[C@]5(CC)C=CCN6CC[C@]43[C@@H]65)C2)C1 [Vincristine, Sulfate of 22-oxovincaleukoblastine]								3

Reference: patent publication US20030162803A1, “Anhydrovinblastine for the treatment of cancer” (priority 1997, published 2003)
